What all share (assay): growth of human tumour cells (NCI), 48 h
Test [1] has as its system CAKI-1 renal.
The test system of test [2] is CCRF-CEM leukemia.
Test [3] has as its system HL-60(TB) leukemia.
Test [4] relates to OVCAR-5 ovarian.
In test [5] the test system is SF-539 CNS.
Test [6] deals with SNB-19 CNS.
For test [7], the system named is SNB-75 CNS.
In test [8] the test system is SR leukemia.
The subject of test [9] is UACC-257 melanoma.
The test system of test [10] is NCI-H23 lung.

From PubChem BioAssay (NCI) come the findings set out here.

Structures are written as SMILES.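 Values below derive from 48-hour exposures of cells grown in 96-well plates, with endpoints linearly interpolated between the two concentrations bracketing the appropriate inhibition level. At the TGI there is no net growth.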

In the case of `OCC1OC(c2ccccc2)CC1O` (configuration not stated), the TGI in test [1], in test [2], in test [3], in test [4], in [5] and in test [6] was more than 100 µM throughout. Besides, the TGI in [7], in [8] and in test [9] was more than 100 µM in each case.

As to `O=c1[nH]c(=O)n(COCc2ccccc2)c2ccccc12`, the TGI in test [1], in test [2], in test [3], in test [4], in test [5] and in [6] was more than 100 µM in each case. In addition, the results for the TGI in [7], in test [8] and in test [9] were 54.9 µM, more than 100 µM and more than 100 µM, respectively.

As to `Cc1cc2oc3c(ccc(=O)n3C)c(=O)c2c(C)c1Cl`, the TGI in test [1] was more than 100 µM; in test [2], more than 100 µM; in test [3] it was more than 100 µM; in test [10], more than 100 µM; in test [4], more than 100 µM; in test [5], 74.6 µM. In addition, the TGI in test [6], in [7] and in test [8] was more than 100 µM each time.

Take `OC1(c2ccc(Cl)cc2)c2c(c3ccccc3c3ccccc23)C2=NCCN21` (configuration not stated): the TGI in [1] was 68.8 µM; in test [2] it was more than 100 µM; in test [3] it was more than 100 µM; in [10], 24.5 µM; in [4], 46 µM; in test [5], 24.5 µM. The TGI was determined as 27.8 µM in test [6], 7.52 µM in [7], 30.5 µM in test [8] and 49.7 µM in test [9].

On to `O=c1c2cc(I)ccc2nc(SCc2nnco2)n1Cc1ccccc1`, for which the TGI in [1] is more than 100 µM; in [2] it was 62.9 µM; in test [3], 35.4 µM; in test [10], more than 100 µM; in test [4] it was more than 100 µM; in test [5], more than 100 µM. The TGI in [6], in [7], in test [8] and in test [9] was more than 100 µM throughout.

As to `CC(=O)OCC1OC(n2c(N)c(C#N)c(-c3cccc(Cl)c3)c(C#N)c2=S)C(OC(C)=O)C(OC(C)=O)C1OC(C)=O` (configuration not stated), the TGI in test [1] is more than 100 µM; in [2], more than 100 µM; in [3], 52 µM; in [10] it was 92.7 µM; in [4] it was more than 100 µM; in test [5] it was 27.7 µM. The TGI is more than 100 µM in test [6], 56.2 µM in [7], 42.8 µM in [8] and 65 µM in test [9].

For `CN(/N=C/c1ccc(Cl)cc1)C1=NCCCCN1`, the TGI in test [1], in test [2], in [3], in test [10], in [4] and in test [5] was more than 100 µM in each case. Also, the TGI in test [6], in test [7], in [8] and in test [9] was more than 100 µM each time.

In the case of `CC(=O)N1C(Nc2cccc3nc(C)ccc23)CCN1c1ccccc1` (configuration not stated), the TGI in test [1], in [2], in [3], in [10], in test [4] and in test [5] was more than 10 µM throughout. The TGI in [6], in [7], in test [8] and in test [9] was more than 10 µM each time.

For the molecule `CCn1c(=O)c2c3ccc(OC)cc3[nH]c2c2ccc(OC)cc21`, the TGI in test [1], in test [2], in [10], in test [4], in test [5] and in [6] was more than 100 µM each time. Moreover, the TGI in test [7] is 96.1 µM; in test [8] it was more than 100 µM; in test [9] it was more than 100 µM.

With `O=C(Nc1ccc(Sc2ccc(N=Nc3c(O)c(S(=O)(=O)O)cc4cc(S(=O)(=O)O)ccc34)cc2)cc1)c1ccc(N=Nc2c(O)c(S(=O)(=O)O)cc3cc(S(=O)(=O)O)ccc23)cc1`, the TGI in [1] was more than 100 µM; in test [2], 64.3 µM; in test [3], 37.4 µM; in [10] it was 61.2 µM; in test [4] it was more than 100 µM; in test [5], more than 100 µM. Besides, the TGI was more than 100 µM in test [6], more than 100 µM in test [7], 54 µM in test [8] and more than 100 µM in test [9].

Take `CC(=O)c1[nH]c(Nc2ccc(C)cc2)c(C(=S)Nc2ccccc2)c1N`: the TGI in [1] was 35.6 µM; in test [2] it was 62.1 µM; in test [3] it was 54.1 µM; in [10], 42.8 µM; in test [4], more than 100 µM; in test [5] it was more than 100 µM. Moreover, the TGI in [6] is 42.9 µM; in test [7], 50.3 µM; in test [8], more than 100 µM; in test [9], 36.5 µM.

Consider `Cc1ccc(N=C2SC(=NN(C)C)SC2=Nc2ccc(C)cc2)cc1`, for which the TGI in [1], in test [2], in test [3], in [10], in [4] and in [5] was more than 100 µM throughout. The TGI in test [6], in [7], in [8] and in test [9] was more than 100 µM in each case.

`C[N+]1([O-])[C@H]2CC(OC(=O)[C@H](CO)c3ccccc3)C[C@H]1[C@H]1O[C@H]12` (some centres not stated): the TGI in test [1], in [2], in test [10], in test [4], in [5] and in [6] was more than 100 µM in each case. Further, the TGI in test [7], in [8] and in test [9] was more than 100 µM each time.

As for `COc1ccc(N2N=NN(C(C)C)/C2=C(/Cl)c2nnnn2-c2ccc(OC)cc2)cc1`, the TGI came to 3.16 µM in [1]; 4.24 µM in test [2]; 5.15 µM in [3]; 33 µM in [10]; 26.9 µM in test [4]; 33.5 µM in test [5]. Further, the TGI in [6] is 31.6 µM; in test [7], 26.5 µM; in test [8], more than 31.8 µM; in [9], 28.9 µM.

For the molecule `CCCCOc1ccc2c(c1)CC[C@@H]1[C@@H]2CC[C@]2(C)C(=O)N(CCCC)C(=O)C[C@@H]12`, the TGI in test [1], in test [2], in test [3], in test [10], in [4] and in test [6] was more than 100 µM in each case. The TGI in test [7] and in test [8] was more than 100 µM each time.

Take `C[C@@]12C[C@@H](c3ccccc3O1)N1Cc3ccccc3CSC1=N2`: the TGI in [1], in [10], in test [4], in [5], in test [6] and in [7] was more than 100 µM in each case. Also, the TGI in test [8] and in test [9] was more than 100 µM throughout.

As for `O=C(NNS(=O)(=O)c1ccccc1)c1csc(NC(=S)NC2CCCCC2)n1`, the TGI in test [1] is 61.4 µM; in [2], more than 100 µM; in test [3] it was more than 100 µM; in test [10], more than 100 µM; in [4] it was more than 100 µM; in test [5] it was 62.3 µM. Besides, the figures for the TGI in test [7], in test [8] and in test [9] were more than 100 µM, more than 100 µM and 53.8 µM, respectively.

With `CC1(C)CN=CC(C)(OCc2ccccc2)C(=O)NC(C)(C)CN=CC(C)(OCc2ccccc2)C(=O)N1` (configuration not stated), the TGI in test [2], in test [3], in test [10], in test [4], in test [5] and in [6] was more than 10 µM throughout. Besides, the TGI in test [7], in test [8] and in test [9] was more than 10 µM each time.

`O=C(/C=C/c1ccccc1)Oc1cccc(Br)c1`: the TGI in [1] is more than 100 µM; in test [3], 52.1 µM; in [10] it was more than 100 µM; in test [4], more than 100 µM; in test [5], more than 100 µM; in test [6], more than 100 µM. The TGI in [7] is more than 100 µM; in test [8] it was 59.3 µM; in test [9] it was more than 100 µM.

As to `NC1=Nc2ccccc2Sc2nc3ccccc3n21`, the TGI in test [2] was more than 100 µM; in [3] it was 6.49 µM; in test [10], more than 100 µM; in test [4], more than 100 µM; in test [5], more than 100 µM; in [6], more than 100 µM. Moreover, the TGI in test [7], in [8] and in [9] was more than 100 µM in each case.

For the molecule `CN(C)C=NCC(O)c1ccccc1` (configuration not stated), the TGI in test [1], in test [2], in test [3], in test [10], in [4] and in [5] was more than 100 µM throughout. Further, the TGI in test [6], in [7] and in test [8] was more than 100 µM in each case.

On to `CC(C)=CCC[C@@H](C)C1=CC(=O)C(C)=C(O)C1=O`, for which the TGI worked out at 10.5 µM in test [1]; 3.9 µM in [2]; 0.878 µM in [3]; 21.1 µM in test [10]; 27.5 µM in test [4]; 29.4 µM in [6]. Also, the TGI is 14 µM in test [7], 5.98 µM in [8] and 25.5 µM in test [9].

In the case of `CN(C)CC1CCCc2ccccc2C1=O` (configuration not stated), the TGI was 6.25 µM in test [1]; 15.2 µM in [10]; 33.5 µM in test [4]; 10.1 µM in test [5]; 26.4 µM in test [6]; 56.2 µM in [7]. Further, the TGI is more than 100 µM in test [8] and 18.9 µM in test [9].

With `COc1cc(C2c3cc(OC)c(OC)c(O)c3C(=O)C3CCC(=O)N32)cc(OC)c1OC` (configuration not stated), the TGI in [1], in test [3], in test [4], in [5], in test [6] and in test [7] was more than 100 µM each time. The TGI in test [8] and in test [9] was more than 100 µM in each case.

Regarding `CO[C@]12CC(=O)C3(C(C[C@H]4CC5CC[C@H]6C[C@@H](OC(C)=O)CC[C@]6(OC(C)=O)C5C[C@@]43C)C1)C1C[C@H]3[C@@H]4CC[C@H]5C[C@@H](OC(C)=O)CC[C@]5(OC(C)=O)[C@H]4CC[C@]3(C)C12` (some centres not stated), the TGI in test [1], in test [2], in [10], in [4], in test [5] and in [6] was more than 100 µM in each case. For the same molecule, the TGI in test [7], in test [8] and in test [9] was more than 100 µM in each case.

For the molecule `CCN(CC)c1ccc2cc(C(N)=O)c(=Nc3ccc(F)cc3)oc2c1`, the TGI in [1], in test [2], in [3], in test [10], in [4] and in test [6] was more than 100 µM each time. Besides, the TGI was 47 µM in test [7], more than 100 µM in [8] and more than 100 µM in [9].

Turning to `CCC(=O)N1C(=O)C(CC)(CC)C(=O)N1C(=O)CC`, the TGI in [1], in test [2], in test [3], in [10], in [4] and in test [6] was more than 100 µM each time. Besides, the TGI in test [7], in test [8] and in test [9] was more than 100 µM each time.

Turning to `O=S1(=O)OCCCOS(=O)(=O)C1(Br)Br`, the TGI in [1], in [2], in [3], in test [10], in [4] and in test [6] was more than 100 µM in each case. Also, the TGI in test [7], in [8] and in test [9] was more than 100 µM each time.
